How the values were obtained:
Assay type in all cases: cell-based
[1] = tested on: Saos-2 cell line; experiment: MTT assay, toxicity (cell viability), Saos-2
Procedure: (§1) The MTT assay measures cell proliferation as well as reduction in cell viability when metabolic events lead to apoptosis or necrosis. It can also be used to assess the rate of survival of a given cell line when it is incubated in the presence of xenobiotics. The reduction of tetrazolium salts is accepted as a reliable way to analyse cell proliferation. The yellow tetrazolium MTT (3-(4,5-dimethylthiazolyl-2)-2,5-diphenyltetrazolium bromide) is reduced by metabolically active cells and results in the intracellular formation of purple formazan that can be spectrophotometrically measured after solubilisation with DMSO.
(§2) The MTT assay was used in this invention to assess the toxicity of compounds at different concentrations. To analyse their potential impairment in cell viability, compounds were added to Saos-2 and U937 cell lines at different concentrations and incubated at different times. Results are expressed by percentage cell viability.

[2] = tested on: Caspase activity, U937 cell extracts; experiment: Caspase inhibition assay, U937 cell extracts; settings: Homo sapiens, U-937, 5 μM
Procedure: The time-dependent inhibition of caspase induced by the compounds described in this invention was analysed. […] Caspase activity was assayed using Saos-2 or U937 cell extracts and Ac-DEVD-afc (N-acetyl-Asp-Glu-Val-Asp-afc(7-amino-4-trifluoromethyl coumarin)) as substrate (20 μM). Caspase activity was continuously monitored by the liberation of fluorescent afc using a Cytofluor 4000 fluorimeter (excitation 400 nm; emission 508 nm) for 1 hour. The effect of the compounds on the caspase activity was expressed as the percentage of inhibition in the fluorescence signal of treated cells vs. the non-treated cells (control).

[3] = tested on: U937 cell line; experiment: MTT assay, toxicity (cell viability), U937
Procedure: as §1, §2

[4] = tested on: Caspase activity, U2-OS; experiment: Caspase inhibition assay, U2-OS; settings: Homo sapiens, U2OS, 5 μM
[5] = tested on: Caspase activity, HeLa; experiment: Caspase inhibition assay, HeLa; settings: Homo sapiens, 5 μM

SMILES | % Cell viability ([1]; Saos-2, 24 h, 1 μM) [%] | % Cell viability ([1]; Saos-2, 24 h, 5 μM) [%] | % Cell viability ([1]; Saos-2, 24 h, 10 μM) [%] | % Cell viability ([1]; Saos-2, 48 h, 1 μM) [%] | % Cell viability ([1]; Saos-2, 48 h, 5 μM) [%] | % Cell viability ([1]; Saos-2, 48 h, 10 μM) [%] | inhibition at 5 µM ([2]; U937, 24 h) [%] | inhibition at 5 µM ([2]; U937, 48 h) [%] | inhibition at 5 µM ([2]; U937, 72 h) [%] | % Cell viability ([3]; U937, 24 h, 1 μM) [%] | % Cell viability ([3]; U937, 24 h, 5 μM) [%] | % Cell viability ([3]; U937, 24 h, 10 μM) [%] | % Cell viability ([3]; U937, 48 h, 1 μM) [%] | % Cell viability ([3]; U937, 48 h, 5 μM) [%] | % Cell viability ([3]; U937, 48 h, 10 μM) [%] | inhibition at 5 µM ([4]; 24 h) [%] | inhibition at 5 µM ([4]; 48 h) [%] | inhibition at 5 µM ([4]; 72 h) [%] | inhibition at 5 µM ([5]; 24 h) [%] | inhibition at 5 µM ([5]; 48 h) [%] | other results
NCCCCC(NC(=O)CN(CCc1ccc(Cl)cc1Cl)C(=O)C1CC(=O)N(CCc2ccc(Cl)cc2Cl)CC(=O)N1CCC(c1ccccc1)c1ccccc1)C(N)=O (centres unmarked) [IIa.2, 1-[2-(2,4-Dichlorophenyl)ethyl]-4-(3,3-diphenyl-propyl)-3,7-dioxo[1,4]diazepane-5-carboxylic acid [(5-amino-1-carbamoylpentylcarbamoyl)methyl]-[2-(2,4-dichlorophenyl)ethyl]amide] | 98 | 100 | 77 | 100 | 97 | 98 | 23 | 11 | 5 |  |  |  |  |  |  |  |  |  |  |  | % Cell viability ([1]; Saos-2, 24 h, 25 μM): 25%; % Cell viability ([1]; Saos-2, 24 h, 50 μM): 10%; % Cell viability ([1]; Saos-2, 48 h, 25 μM): 11%
NC(=O)CN(CCc1ccc(F)cc1)C(=O)C1CC(=O)N(CCc2ccc(Cl)cc2Cl)CC(=O)N1CCC(c1ccccc1)c1ccccc1 (centres unmarked) [I.10, 1-[2-(2,4-Dichlorophenyl)ethyl]-4-(3,3-diphenylpropyl)-3,7-dioxo[1,4]diazepane-5-carboxylic acid carbamoylmethyl[2-(4-fluorophenyl)ethyl]amide] | 76 | 100 | 91 | 100 | 100 | 100 | 0 | 5 | 2 | 96 | 99 | 89 | 100 | 98 | 99 | 0 | 22 | 64 | 1 | 6 | 
CCCCN(CC(N)=O)C(=O)C1CC(=O)N(CCc2ccc(Cl)cc2Cl)CC(=O)N1CCC(c1ccccc1)c1ccccc1 (centres unmarked) [I.11, 1-[2-(2,4-Dichloro-phenyl)ethyl]-4-(3,3-diphenylpropyl)-3,7-dioxo[1,4]diazepane-5-carboxylic acid butyl-carbamoylmethylamide] | 100 | 98 | 82 | 100 | 91 | 74 | 11 | 0 | 4 | 100 | 95 | 79 | 98 | 89 | 75 | 0 | 31 | 50 | 14 | 0 | inhibition at 5 µM ([5]; 72 h): 62%
NC(=O)CN(CCc1ccc(Cl)cc1)C(=O)C1CC(=O)N(CCc2ccc(Cl)cc2Cl)CC(=O)N1CCC(c1ccccc1)c1ccccc1 (centres unmarked) [I.8, 1-[2-(2,4-Dichlorophenyl)ethyl]-4-(3,3-diphenylpropyl)-3,7-dioxo[1,4]diazepane-5-carboxylic acid carbamoylmethyl[2-(4-chlorophenyl)ethyl]amide] | 100 | 100 | 99 | 97 | 100 | 100 | 5 | 15 | 23 | 100 | 98 | 99 | 100 | 98 | 99 | 0 | 16 | 24 | 5 | 3 | inhibition at 5 µM ([5]; 72 h): 6%
NC(=O)CN(CCc1ccccc1F)C(=O)C1CC(=O)N(CCc2ccc(Cl)cc2Cl)CC(=O)N1CCC(c1ccccc1)c1ccccc1 (centres unmarked) [I.9, 1-[2-(2,4-Dichlorophenyl)ethyl]-4-(3,3-diphenylpropyl)-3,7-dioxo[1,4]diazepane-5-carboxylic acid carbamoylmethyl[2-(2-fluorophenyl)-ethyl]amide] | 100 | 96 | 82 | 97 | 76 | 66 | 3 | 4 | 63 | 100 | 98 | 88 | 93 | 69 | 59 | 0 | 34 | 61 | 0 | 0 | inhibition at 5 µM ([5]; 72 h): 41%
NC(=O)CN(C(=O)C1CC(=O)N(CCc2ccc(Cl)cc2Cl)CC(=O)N1CCC(c1ccccc1)c1ccccc1)C1CC1 (centres unmarked) [I.2, 1-[2-(2,4-Dichlorophenyl)ethyl]-4-(3,3-diphenylpropyl)-3,7-dioxo[1,4]diazepane-5-carboxylic acid carbamoylmethylcyclopropylamide] | 100 | 99 | 99 | 100 | 100 | 91 | 0 | 3 | 0 | 100 | 100 | 97 | 100 | 99 | 83 | 0 | 54 | 27 | 1 | 46 | inhibition at 5 µM ([5]; 72 h): 59%

From patent US20090298781A1, “COMPOUNDS FOR THE INHIBITION OF APOPTOSIS” (CONSEJO SUPERIOR DE, priority 2005, published 2009)
